Test results reported in the supplement of paper PMC11061612.

Key:
[1] = test system: JHU-022 (Oral Cavity Carcinoma); assay: combination Emax (second highest fraction inhibited in the dose matrix, 72 h); higher = more inhibition; extreme values may be limits of the assay
Method in brief: (§1)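 Bliss excess equals the observed combination effect minus the expected value EA + EB − EA·EB, where EA and EB are the effects of each agent alone. Combination Emax is the second-highest inhibition within the matrix. Inhibition was scaled from CellTiter-Glo 2.0 luminescence, with 0 set by vehicle wells and 1 by blank wells, after 72 hours of two-drug dosing of cells plated in 1536-well plates.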

[2] = test system: WM1552C (Melanoma); assay: as above
Method in brief: as §1

[3] = test system: A253 (Head and Neck Carcinoma); assay: as above
Method in brief: as §1

[4] = test system: DMS-53 (Small Cell Lung Carcinoma); assay: as above
Method in brief: as §1

[5] = test system: IM-9 (Non-Cancerous); assay: as above
Method in brief: as §1

[6] = test system: PEO1 (Ovarian Carcinoma); assay: Bliss excess, mean over the matrix (fraction); higher = more synergy
Method in brief: as §1

[7] = test system: ESO26 (Esophageal Adenocarcinoma); assay: as above
Method in brief: as §1

[8] = test system: MHH-ES-1 (Ewing's Sarcoma); assay: as above
Method in brief: as §1

[9] = test system: KP-N-YN (Neuroblastoma); assay: as above
Method in brief: as §1

[10] = test system: NCI-H441 (Lung Adenocarcinoma); assay: as above
Method in brief: as §1

[11] = test system: JHH-2 (Hepatocellular Carcinoma); assay: as above
Method in brief: as §1

[12] = test system: A253 (Head and Neck Carcinoma); assay: as above
Method in brief: as §1

[13] = test system: 769-P (Kidney Carcinoma); assay: as above
Method in brief: as §1

[14] = test system: G-402 (Other Solid Carcinomas); assay: as above
Method in brief: as §1

[15] = test system: KYSE-220 (Esophageal Squamous Cell Carcinoma); assay: as above
Method in brief: as §1

[16] = test system: NCI-H1651 (Lung Adenocarcinoma); assay: as above
Method in brief: as §1

[17] = test system: CESS (Acute Myeloid Leukemia); assay: as above
Method in brief: as §1

[18] = test system: CAL-27 (Oral Cavity Carcinoma); assay: as above
Method in brief: as §1

[19] = test system: EW-7 (Ewing's Sarcoma); assay: as above
Method in brief: as §1

[20] = test system: UACC-812 (Breast Carcinoma); assay: as above
Method in brief: as §1

In the case of `CC1(C)CCC(CN2CCN(c3ccc(C(=O)NS(=O)(=O)c4ccc(NCC5CCOCC5)c([N+](=O)[O-])c4)c(Oc4cnc5[nH]ccc5c4)c3)CC2)=C(c2ccc(Cl)cc2)C1` [Venetoclax] + CN(C)CCCOc1ccc(-c2ccc3ncc4c(c3c2)n(C2CCOCC2)c(=O)n4C)cn1 [AZD0156] (first compound max 1 µM, 7x7, partner max 1 µM), the “combination Emax” value [1] is reported as 0.167, the “combination Emax” value [2] is reported as 0.562 and the “combination Emax” value [3] is reported as 0.178. For the same molecule, the “combination Emax” value [4] was 0.44, the “combination Emax” value [5] was 0.812 and the Bliss excess [6] was -0.018. It also gave a Bliss excess [7] of -0.0063, a Bliss excess [8] of 0.0177 and a Bliss excess [9] of -0.0016. The Bliss excess [10] was -0.0733, the Bliss excess [11] was -0.028 and the Bliss excess [12] was 0.0119. For the same molecule, the Bliss excess [13] was -0.0276, the Bliss excess [14] was -0.0774 and the Bliss excess [15] was -0.0135. For the same molecule, the Bliss excess [16] was -0.0174, the Bliss excess [17] was -0.0638 and the Bliss excess [18] was 0.0065. It also gave a Bliss excess [19] of -0.007 and a Bliss excess [20] of -0.016.
For `CC1(C)CCC(CN2CCN(c3ccc(C(=O)NS(=O)(=O)c4ccc(NCC5CCOCC5)c([N+](=O)[O-])c4)c(Oc4cnc5[nH]ccc5c4)c3)CC2)=C(c2ccc(Cl)cc2)C1` [Venetoclax] + COc1cc(Nc2ncc3c(n2)-c2ccc(Cl)cc2C(c2c(F)cccc2OC)=NC3)ccc1C(=O)O [Alisertib] (first compound max 1 µM, 7x7, partner max 10 µM), the “combination Emax” value [1] was 0.382, the “combination Emax” value [2] was 0.508 and the “combination Emax” value [3] was 0.444. For the same molecule, the “combination Emax” value [4] was 0.809, the “combination Emax” value [5] was 1 and the Bliss excess [6] was 0.0007. The Bliss excess [7] was -0.003, the Bliss excess [8] was 0.0931 and the Bliss excess [9] was 0.0886. For the same molecule, the Bliss excess [10] was -0.0511, the Bliss excess [11] was -0.0018 and the Bliss excess [12] was 0.0091. For the same molecule, the Bliss excess [13] was 0.0339, the Bliss excess [14] was -0.0116 and the Bliss excess [15] was -0.0305. It also gave a Bliss excess [16] of 0.0211, a Bliss excess [17] of 0.0268 and a Bliss excess [18] of -0.0088. It also gave a Bliss excess [19] of 0.0262 and a Bliss excess [20] of -0.0157.
`CC1(C)CCC(CN2CCN(c3ccc(C(=O)NS(=O)(=O)c4ccc(NCC5CCOCC5)c([N+](=O)[O-])c4)c(Oc4cnc5[nH]ccc5c4)c3)CC2)=C(c2ccc(Cl)cc2)C1` [Venetoclax] + C[C@@H]1COCCN1C2=NC(=NC(=C2)C3(CC3)[S@](=N)(=O)C)C4=C5C=CNC5=NC=C4 [AZD6738] (first compound max 1 µM, 7x7, partner max 10 µM) was tested, and the “combination Emax” value [1] was 0.593, the “combination Emax” value [2] was 0.617 and the “combination Emax” value [3] was 0.804. The “combination Emax” value [4] was 0.809, the “combination Emax” value [5] was 0.995 and the Bliss excess [6] was -0.0038. For the same molecule, the Bliss excess [7] was -0.0101, the Bliss excess [8] was 0.0077 and the Bliss excess [9] was -0.0619. It also gave a Bliss excess [10] of -0.0483, a Bliss excess [11] of -0.019 and a Bliss excess [12] of -0.0372. For the same molecule, the Bliss excess [13] was -0.0067, the Bliss excess [14] was -0.0004 and the Bliss excess [15] was -0.0398. The Bliss excess [16] was -0.0123, the Bliss excess [17] was -0.0075 and the Bliss excess [18] was -0.0559. It also gave a Bliss excess [19] of -0.037 and a Bliss excess [20] of 0.0003.
With `CC1(C)CCC(CN2CCN(c3ccc(C(=O)NS(=O)(=O)c4ccc(NCC5CCOCC5)c([N+](=O)[O-])c4)c(Oc4cnc5[nH]ccc5c4)c3)CC2)=C(c2ccc(Cl)cc2)C1` [Venetoclax] + C[C@@H](Nc1cc(F)cc(F)c1)c1cc(C(=O)N(C)C)cc2c(=O)cc(N3CCOCC3)oc12 [AZD8186] (first compound max 1 µM, 7x7, partner max 3 µM) the “combination Emax” value [1] was 0.314, the “combination Emax” value [2] was 0.365 and the “combination Emax” value [3] was 0.103. For the same molecule, the “combination Emax” value [4] was 0.137, the “combination Emax” value [5] was 0.573 and the Bliss excess [6] was -0.0427. For the same molecule, the Bliss excess [7] was -0.0277, the Bliss excess [8] was -0.0248 and the Bliss excess [9] was 0.104. It also gave a Bliss excess [10] of -0.0304, a Bliss excess [11] of 0.0003 and a Bliss excess [12] of -0.0364. For the same molecule, the Bliss excess [13] was 0.049, the Bliss excess [14] was -0.0612 and the Bliss excess [15] was -0.0332. The Bliss excess [16] was -0.0212, the Bliss excess [17] was -0.0244 and the Bliss excess [18] was -0.0361. The Bliss excess [19] was 0.0048 and the Bliss excess [20] was -0.0319.
`CC1(C)CCC(CN2CCN(c3ccc(C(=O)NS(=O)(=O)c4ccc(NCC5CCOCC5)c([N+](=O)[O-])c4)c(Oc4cnc5[nH]ccc5c4)c3)CC2)=C(c2ccc(Cl)cc2)C1` [Venetoclax] + Cc1cc2ncnn2cc1Nc1ncc2c(n1)n(C1CCOCC1)c(=O)n2C [AZD7648] (first compound max 1 µM, 7x7, partner max 10 µM) was tested, and the “combination Emax” value [1] was 0.221, the “combination Emax” value [2] was 0.444 and the “combination Emax” value [3] was 0.212. For the same molecule, the “combination Emax” value [4] was 0.428, the “combination Emax” value [5] was 0.655 and the Bliss excess [6] was -0.033. It also gave a Bliss excess [7] of -0.0336, a Bliss excess [8] of -0.0189 and a Bliss excess [9] of -0.0085. For the same molecule, the Bliss excess [10] was -0.0437, the Bliss excess [11] was -0.069 and the Bliss excess [12] was 0.0072. For the same molecule, the Bliss excess [13] was -0.0087, the Bliss excess [14] was -0.0359 and the Bliss excess [15] was -0.0371. It also gave a Bliss excess [16] of -0.0342, a Bliss excess [17] of -0.0288 and a Bliss excess [18] of 0.0079. The Bliss excess [19] was -0.0345 and the Bliss excess [20] was 0.0286.
In the case of `CC1(C)CCC(CN2CCN(c3ccc(C(=O)NS(=O)(=O)c4ccc(NCC5CCOCC5)c([N+](=O)[O-])c4)c(Oc4cnc5[nH]ccc5c4)c3)CC2)=C(c2ccc(Cl)cc2)C1` [Venetoclax] + Cn1cnc2c(F)c(Nc3ccc(Br)cc3Cl)c(C(=O)NOCCO)cc21 [Selumetinib] (first compound max 1 µM, 7x7, partner max 3 µM), the “combination Emax” value [1] is reported as 0.42, the “combination Emax” value [2] is reported as 0.488 and the “combination Emax” value [3] is reported as 0.185. The “combination Emax” value [4] was 0.367, the “combination Emax” value [5] was 0.901 and the Bliss excess [6] was -0.0452. The Bliss excess [7] was -0.0133, the Bliss excess [8] was -0.0424 and the Bliss excess [9] was -0.0102. It also gave a Bliss excess [10] of -0.043, a Bliss excess [11] of 0.016 and a Bliss excess [12] of -0.028. The Bliss excess [13] was -0.004, the Bliss excess [14] was -0.0298 and the Bliss excess [15] was 0.0102. It also gave a Bliss excess [16] of -0.0367, a Bliss excess [17] of -0.0674 and a Bliss excess [18] of -0.0087. For the same molecule, the Bliss excess [19] was -0.0058 and the Bliss excess [20] was -0.0297.
